Data from patent US11053204B2, “Pyrimidinyloxy benzene derivatives as herbicides” (FMC Corporation, priority 2015, dated 2021).

Tests used:
Assay in all cases: Test C postemergence, plant response rating
Type in all cases: in vivo
[1] = tested on: johnsongrass (Sorghum halepense); settings: for Johnsongrass plant response rating: scale 0 to 100 (0 no effect, 100 complete control)
Procedure, shortened: (§1)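 Greenhouse plants rated visually against untreated controls 13–15 d after treatment, scale 0 = no effect to 100 = complete control. Postemergence sprays went onto potted plants 2–18 cm tall (1–4 leaves); preemergence sprays onto soil freshly sown in loam–sand or silt loam, chemicals formulated in non-phytotoxic solvent with surfactant.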

[2] = tested on: nightshade (eastern black nightshade, Solanum ptycanthum); settings: for Nightshade plant response rating: scale 0 to 100 (0 no effect, 100 complete control)
Procedure, shortened: as §1

[3] = tested on: field poppy (Papaver rhoeas); settings: for Field Poppy plant response rating: scale 0 to 100 (0 no effect, 100 complete control)
Procedure, shortened: as §1

[4] = tested on: Canada thistle (Cirsium arvense); settings: for Canada Thistle plant response rating: scale 0 to 100 (0 no effect, 100 complete control)
Procedure, shortened: as §1

[5] = tested on: pigweed, palmer (palmer pigweed, Amaranthus palmeri); settings: for Pigweed, Palmer plant response rating: scale 0 to 100 (0 no effect, 100 complete control)
Procedure, shortened: as §1

[6] = tested on: geranium, cutleaf (cutleaf geranium, Geranium dissectum); settings: for Geranium, Cutleaf plant response rating: scale 0 to 100 (0 no effect, 100 complete control)
Procedure, shortened: as §1

[7] = tested on: wild poinsettia (Euphorbia heterophylla); settings: for Poinsettia, Wild plant response rating: scale 0 to 100 (0 no effect, 100 complete control)
Procedure, shortened: as §1

[8] = tested on: surinam grass (Brachiaria decumbens)
Procedure, shortened: as §1

[9] = tested on: buckwheat, wild (wild buckwheat, Polygonum convolvulus); settings: for Buckwheat, Wild plant response rating: scale 0 to 100 (0 no effect, 100 complete control)
Procedure, shortened: as §1

[10] = tested on: field violet (Viola arvensis); settings: for Field Violet plant response rating: scale 0 to 100 (0 no effect, 100 complete control)
Procedure, shortened: as §1

[11] = tested on: speedwell (bird's-eye speedwell, Veronica persica); settings: for Speedwell plant response rating: scale 0 to 100 (0 no effect, 100 complete control)
Procedure, shortened: as §1

[12] = tested on: windgrass (Apera spica-venti)
Procedure, shortened: as §1

[13] = tested on: wild mustard (Sinapis arvensis); settings: for Mustard, Wild plant response rating: scale 0 to 100 (0 no effect, 100 complete control)
Procedure, shortened: as §1

[14] = 125 g ai/ha, scale 0 to 100 (0 no effect, 100 complete control)

O=C(CCC(F)(F)C(F)(F)F)c1c(Br)cccc1Oc1ncc(Cl)cn1 [Compound 110]
98: Nightshade plant response rating ([2]; 125 g ai/ha) | Canada Thistle plant response rating ([4]; 62 g ai/ha) | Pigweed, Palmer plant response rating ([5]; 62 g ai/ha)
20: Plant response rating, Surinam Grass ([8]; 31 g ai/ha, scale 0 to 100) | Plant response rating, Windgrass ([12]; 16 g ai/ha, scale of 0 to 100)
60: Geranium, Cutleaf plant response rating ([6]; 125 g ai/ha) | Plant response rating, Speedwell ([11]; 16 g ai/ha, scale of 0 to 100)
40: Geranium, Cutleaf plant response rating ([6]; 62 g ai/ha) | Plant response rating, Poinsettia, Wild ([7]; 16 g ai/ha, scale of 0 to 100)
10: Plant response rating, Johnsongrass ([1]; 31 g ai/ha, scale 0 to 100) | Johnsongrass plant response rating ([1]; 62 g ai/ha)
85: Plant response rating, Nightshade ([2]; 31 g ai/ha, scale 0 to 100) | Plant response rating, Field Poppy ([3]; 16 g ai/ha, scale of 0 to 100) | Plant response rating, Buckwheat, Wild ([9]; 16 g ai/ha, scale of 0 to 100) | Plant response rating, Buckwheat, Wild ([9]; 31 g ai/ha, scale 0 to 100)
15: Johnsongrass plant response rating ([1]; 125 g ai/ha) | Plant response rating, Surinam Grass ([8]; 16 g ai/ha, scale of 0 to 100)
95: Nightshade plant response rating ([2]; 62 g ai/ha) | Canada Thistle plant response rating ([4]; 125 g ai/ha) | Plant response rating, Pigweed, Palmer ([5]; 31 g ai/ha, scale 0 to 100) | Pigweed, Palmer plant response rating ([5]; 125 g ai/ha) | Buckwheat, Wild plant response rating ([9]; 62 g ai/ha) | Plant response rating, Field Violet ([10]; 31 g ai/ha, scale 0 to 100) | Field Violet plant response rating ([10]; 62 g ai/ha) | Plant response rating, Speedwell ([11]; 31 g ai/ha, scale 0 to 100) | Speedwell plant response rating ([11]; 125 g ai/ha)
5: Plant response rating, Johnsongrass ([1]; 16 g ai/ha, scale of 0 to 100) | Plant response rating, Geranium, Cutleaf ([6]; 16 g ai/ha, scale of 0 to 100)
90: Plant response rating, Canada Thistle ([4]; 31 g ai/ha, scale 0 to 100) | Poinsettia, Wild plant response rating ([7]; 125 g ai/ha) | Speedwell plant response rating ([11]; 62 g ai/ha) | Plant response rating, Mustard, Wild ([13]; 16 g ai/ha, scale of 0 to 100) | Plant response rating, Mustard, Wild ([13]; 31 g ai/ha, scale 0 to 100)
25: Surinam Grass plant response rating [8, 14] | Plant response rating, Windgrass ([12]; 31 g ai/ha, scale 0 to 100)
75: Plant response rating, Nightshade ([2]; 16 g ai/ha, scale of 0 to 100) | Plant response rating, Pigweed, Palmer ([5]; 16 g ai/ha, scale of 0 to 100)
80: Poinsettia, Wild plant response rating ([7]; 62 g ai/ha) | Buckwheat, Wild plant response rating ([9]; 125 g ai/ha) | Plant response rating, Field Violet ([10]; 16 g ai/ha, scale of 0 to 100)
100: Plant response rating, Field Poppy ([3]; 31 g ai/ha, scale 0 to 100) | Field Poppy plant response rating ([3]; 62 g ai/ha) | Field Poppy plant response rating ([3]; 125 g ai/ha) | Field Violet plant response rating ([10]; 125 g ai/ha) | Mustard, Wild plant response rating ([13]; 62 g ai/ha) | Mustard, Wild plant response rating ([13]; 125 g ai/ha)
65: Plant response rating, Canada Thistle ([4]; 16 g ai/ha, scale of 0 to 100) | Plant response rating, Poinsettia, Wild ([7]; 31 g ai/ha, scale 0 to 100)
30: Plant response rating, Geranium, Cutleaf ([6]; 31 g ai/ha, scale 0 to 100) | Windgrass plant response rating [12, 14]
